For 20 compounds, IC50 results are on record in US10519106B2, “Urea derivative and use therefor” (Toray Industries, Inc., priority 2015, dated 2019).

The assay concerns the target T1, intracellular domain of DDR1 (Homo sapiens, UniProt Q08345).
T1 construct: the intracellular domain of DDR1 (in a final concentration of 5 ng/μL) (Carna Biosciences, Inc.); purchased Carna Biosciences, Inc
Kind of assay: Evaluation of DDR1 inhibition activity with HTRF KinEASE-TK kit. The assay is classed as biochemical. Conditions: intracellular domain of DDR1 5 ng/μL, ATP 25 mol/L (so in the source), TK Substrate-biotin 1000 nmol/L, room temperature, one hour. The protocol: The DDR1 inhibition activity of the compounds of Examples 1 to 51 was evaluated with HTRF® KinEASE-TK kit (Cisbio Bioassays).
Each test substance was dissolved in dimethyl sulfoxide (hereinafter referred to as DMSO) and then used for the evaluation as described below. Moreover, each of test substances and reagents was diluted in the kinase buffer (Cisbio Bioassays) prepared by adding thereto MgCl2, MnCl2, DTT, and the Supplemental Enzyme buffer (Cisbio Bioassays) to concentrations of 5 mmol/L, 0.5 mmol/L, 0.25 mmol/L, and 50 nmol/L, respectively, and then used. Each test substance (in DMSO in a final concentration of 1%), the intracellular domain of DDR1 (in a final concentration of 5 ng/μL) (Carna Biosciences, Inc.), the phosphate donor ATP (in final concentration of 25 mol/L) (Sigma), and the substrate TK Substrate-biotin (in a final concentration of 1000 nmol/L) (Cisbio Bioassays) were added to a 384-well black plate (Corning) and allowed to react at room temperature for one hour. After completion of the reaction, the TK Antibody-Cryptate (Cisbio Bioassays) and the Streptavidin-XL665 (Cisbio Bioassays) were added thereto and allowed to react at room temperature for one hour. In addition, the plate was provided with a well to which a test substance was not added, and with a well to which the intracellular domain of DDR1 and a test substance were not added.
The fluorescence intensity in each well was measured using a multi-label counter (Envision, PerkinElmer; excitation wavelength: 320 nm, measurement wavelength: 665 nm and 620 nm) to calculate a Ratio (the fluorescence intensity at 665 nm/the fluorescence intensity at 620 nm). The inhibition rate (%) of a test substance at each concentration was calculated based on the formula below. Inhibition rate (%)=([the Ratio obtained from the well containing no test substance]−[the Ratio from a well containing a test substance])/([the Ratio obtained from the well containing no test substance]−[the Ratio obtained from the well containing no intracellular domain of DDR1 and no test substance])×100
The calculated inhibition rates were fitted to a sigmoidal dose-response curve by regression analysis using the Prism 5.04 (GraphPad Software, Inc.) to calculate the ICso0 value of the test substance.

Structures can show the parent of a compound that is named as a salt.

T1 sequence (Q08345 444-876 isoform Q08345-2 limits assumed): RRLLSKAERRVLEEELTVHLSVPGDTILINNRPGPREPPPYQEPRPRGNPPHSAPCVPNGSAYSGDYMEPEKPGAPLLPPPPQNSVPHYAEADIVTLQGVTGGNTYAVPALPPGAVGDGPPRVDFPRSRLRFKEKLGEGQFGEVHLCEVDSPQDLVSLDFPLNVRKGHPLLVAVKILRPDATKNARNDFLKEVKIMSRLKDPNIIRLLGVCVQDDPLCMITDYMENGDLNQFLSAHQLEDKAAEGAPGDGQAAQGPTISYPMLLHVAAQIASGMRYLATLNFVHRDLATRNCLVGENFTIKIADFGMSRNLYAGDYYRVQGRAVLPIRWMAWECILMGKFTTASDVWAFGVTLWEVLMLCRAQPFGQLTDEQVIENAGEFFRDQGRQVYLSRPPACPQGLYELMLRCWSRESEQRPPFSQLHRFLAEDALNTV

One may read the IC50 as the point on the concentration scale where inhibition reaches its midpoint. Lower therefore signals greater potency. `COc1ccc(C(F)(F)F)cc1NC(=O)NCc1ccccc1Oc1ccc(C(N)=O)cc1` [Compound of Example 31] registered an IC50 of 11 nM.
The figure for `NC(=O)c1ccc(Oc2ccccc2CNC(=O)Nc2cccc(C(F)(F)F)c2)cc1` [Compound of Example 32] is 17.3 nM.
Compound `NC(=O)c1ccc(Oc2ccccc2CNC(=O)Nc2cc(C(F)(F)F)ccc2OC2COC2)cc1` [Compound of Example 33, 4-(2-((3-(2-(oxetan-3-yloxy)-5-(trifluoromethyl)phenyl)ureido)methyl)phenoxy)benzamide] registered an IC50 of 12.9 nM. The IC50 values of the last two compounds are within 1.5-fold of each other.
`NC(=O)c1ccc(Oc2ccccc2CNC(=O)Nc2cc(OC(F)(F)F)ccc2OC2COC2)cc1` [Compound of Example 34, 4-(2-((3-(2-(oxetan-3-yloxy)-5-(trifluoromethoxy)phenyl)ureido)methyl)phenoxy)benzamide]: the IC50 was 22 nM.
For `NC(=O)c1ccc(Oc2ccccc2CNC(=O)Nc2cc(CO)cc(C(F)(F)F)c2)cc1` [Compound of Example 35], it took 12.9 nM to reach half-maximal inhibition (IC50).
In the case of `NC(=O)c1ccc(Oc2ccccc2CNC(=O)Nc2ccc(CO)c(C(F)(F)F)c2)cc1` [Compound of Example 36, 4-(2-((3-(4-(hydroxymethyl)-5-(trifluoromethyl)phenyl)ureido)methyl)phenoxy)benzamide], 13.2 nM corresponded to half-maximal inhibition (IC50). The IC50 values of the last two compounds are within 1.5-fold of each other.
Compound `CN1CCN(Cc2cc(NC(=O)NCc3ccccc3Oc3ccc(C(N)=O)cc3)cc(C(F)(F)F)c2)CC1` [Compound of Example 37, 4-(2-((3-(3-((4-methylpiperazin-1-yl)methyl)-5-(trifluoromethyl)phenyl)ureido)methyl)phenoxy)benzamide] displayed an IC50 of 11.7 nM.
`CN1CCN(Cc2ccc(NC(=O)NCc3ccccc3Oc3ccc(C(N)=O)cc3)cc2C(F)(F)F)CC1` [Compound of Example 38, 4-(2-((3-(4-((4-methylpiperazin-1-yl)methyl)-3-(trifluoromethyl)phenyl)ureido)methyl)phenoxy)benzamide] displayed an IC50 of 4.64 nM.
The same measure for `NC(=O)c1ccc(Oc2ccccc2CNC(=O)Nc2cc(CN3CCNCC3)cc(C(F)(F)F)c2)cc1` [Compound of Example 39, 4-(2-((3-(3-((piperazin-1-ylmethyl)-5-(trifluoromethyl)phenyl)ureido)methyl)phenoxy)benzamide hydrochloride]: 4.2 nM.
In turn, `NC(=O)c1ccc(Oc2ccccc2CNC(=O)Nc2ccc(CN3CCNCC3)c(C(F)(F)F)c2)cc1` [Compound of Example 40, 4-(2-((3-(4-((piperazin-1-ylmethyl)-5-(trifluoromethyl)phenyl)ureido)methyl)phenoxy)benzamide hydrochloride] gave an IC50 of 8.91 nM. This IC50 is about 2.1-fold higher than that of the compound before.
On to `NC(=O)c1ccc(Oc2ccccc2CNC(=O)Nc2cc(C(F)(F)F)ccc2OC2CCNCC2)cc1` [Compound of Example 41, 4-(2-((3-(2-(piperidin-4-yloxy)-5-(trifluoromethyl)phenyl)ureido)methyl)phenoxy)benzamide], for which 35.2 nM corresponded to half-maximal inhibition (IC50). This IC50 is about 4-fold higher than that of the compound before.
The same measure for `CNC(=O)c1ccc(Oc2ccccc2CNC(=O)Nc2cccc(C(F)(F)F)c2)cc1` [Compound of Example 42]: 21.5 nM; for `CNC(=O)c1ccc(Oc2ccccc2CNC(=O)Nc2cc(C(F)(F)F)ccc2OC2COC2)cc1` [Compound of Example 43, 4-(2-((3-(2-(oxetan-3-yloxy)-5-(trifluoromethyl)phenyl)ureido)methyl)phenoxy)-N-methyl-benzamide]: 78.5 nM; for `NC(=O)c1cccc(Oc2ccccc2CNC(=O)Nc2cccc(C(F)(F)F)c2)c1` [Compound of Example 44]: 23.7 nM.
`CCOc1ccc(C(F)(F)F)cc1NC(=O)NCc1ccccc1Oc1ccc(C(N)=O)cc1` [Compound of Example 46] came in with an IC50 of 22.5 nM.
The figure for `NC(=O)c1ccc(Oc2ccccc2CNC(=O)Nc2cccc(C(F)(F)F)c2)nc1` [Compound of Example 47, 6-(2-((3-(3-(trifluoromethyl)phenyl)ureido)methyl)phenoxy)nicotinamide] is 23.4 nM; for `CNC(=O)c1ccc(Oc2ccccc2CNC(=O)Nc2cccc(C(F)(F)F)c2)nc1` [Compound of Example 48, N-methyl-6-(2-((3-(3-(trifluoromethyl)phenyl)ureido)methyl)phenoxy)nicotinamide] it is 29.1 nM.
With `NC(=O)c1ccc(Oc2ccccc2CNC(=O)Nc2cccc(Cl)c2)cc1` [Compound of Example 49, 4-(2-((3-(3-chlorophenyl)ureido)methyl)phenoxy)benzamide], the IC50 was 19.3 nM. Compared with the last compound, the IC50 is about 1.5-fold lower.
Regarding `COc1ccc(Cl)cc1NC(=O)NCc1ccccc1Oc1ccc(C(N)=O)cc1` [Compound of Example 50], half-maximal inhibition (IC50) required 12.3 nM.
The figure for `CCOc1ccc(Cl)cc1NC(=O)NCc1ccccc1Oc1ccc(C(N)=O)cc1` [Compound of Example 51] is 18.3 nM.
